Biological target: T1, GPR84 Y332F (Homo sapiens, UniProt Q9NQS5, Y332F)
T1 construct: FLAG (N); Gαi2-Cys352Ile (fusion partner) (C); expressed in transfected cells
Experiment: BRET β-arrestin-1 recruitment assay, HEK293T cells
Assay type: cell-based
Procedure: As a control, cells were transfected with 100:1 ratio of empty plasmid and the appropriate arrestin isoform fused to nano-luciferase. After 24 h, cells were seeded at 50,000 cells per well in poly-D-lysine-coated white 96-well plates and incubated at 37°C overnight. After 24 h, cells were washed twice with Hank’s balanced salt solution (HBSS), pH 7.4, and 10 μl/well of the nano-luciferase substrate coelenterazine-h (Nanolight Technologies) was added to a final concentration of 5 μM. Cells were incubated in the dark for 10 min at 37°C, after which 10 μl/well of the agonist compound was added, and the cells were incubated for another 5 minutes. 15 min after coelenterazine-h addition, reading of emission signals were performed on a PHERAstar FS plate reader (BMG Labtech) at 475 and 535 nm, representing nano-luciferase and eYFP emission signals, respectively. The net bioluminescence resonance energy transfer (BRET) ratio (mBRET) was calculated as follows: mBRET=(BRET^sample−BRET^control)*1000whereBRET=Emission^535nm/Emission^475nm

T1 sequence (Q9NQS5 whole entry Y332F, the tested form may be a part): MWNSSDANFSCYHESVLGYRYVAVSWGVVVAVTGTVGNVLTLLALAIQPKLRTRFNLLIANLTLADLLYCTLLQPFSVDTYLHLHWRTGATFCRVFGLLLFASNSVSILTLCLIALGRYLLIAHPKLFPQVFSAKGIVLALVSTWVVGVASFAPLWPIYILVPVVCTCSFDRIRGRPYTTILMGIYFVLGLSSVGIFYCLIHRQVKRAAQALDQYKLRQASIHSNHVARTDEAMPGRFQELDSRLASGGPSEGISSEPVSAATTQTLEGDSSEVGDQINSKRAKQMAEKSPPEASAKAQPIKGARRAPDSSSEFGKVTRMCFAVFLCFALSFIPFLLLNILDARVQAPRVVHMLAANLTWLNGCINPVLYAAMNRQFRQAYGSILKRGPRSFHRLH

Structure (SMILES): Cc1cc(CCCc2cc(O)c[n+]([O-])c2)ccc1Cl [OX04954]
- EC50: 0.0501 µM
- Emax (HEK-293T): 40 ± 4%

Reference: article doi:[…]/2025.07.30.667614, “Steric control of signaling bias in the immunometabolic receptor GPR84” (bioRxiv, 2025)
